Measurements taken from PubChem BioAssay AID1963420 (Molecular Pharmacology Branch, DTP, NCI, 2024).

Tested on: 494315-158-R-J1-PDC complex spheroid growth, percent test/control
Experiment: Anticancer human tumor 494315-158-R-J1-PDC patient-derived soft tissue sarcoma cell line growth inhibition [Asc]
Details: for IC50: curve of first compound; for viability, T/C: stronger effect = lower value
In short: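 Concentration series start at each agent's clinical Cmax, or at 10 microM when none is established, and drop in half-log steps; agents are applied alone or together to complex spheroids built with HUVEC and hMSC.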

[1] = second compound 0.03 µM, first compound 0.0316 µM
[2] = second compound 0.03 µM, first compound 0.1 µM
[3] = second compound 0.03 µM, first compound 0.316 µM
[4] = second compound 0.03 µM, first compound 1 µM
[5] = second compound 0.03 µM, first compound 3.16 µM
[6] = second compound 0.03 µM, first compound 10 µM
[7] = second compound 0.0949 µM, first compound 0.0316 µM
[8] = second compound 0.0949 µM, first compound 0.1 µM
[9] = second compound 0.0949 µM, first compound 0.316 µM
[10] = second compound 0.0949 µM, first compound 1 µM
[11] = second compound 0.0949 µM, first compound 3.16 µM
[12] = second compound 0.0949 µM, first compound 10 µM
[13] = second compound 0.3 µM, first compound 0.0316 µM
[14] = second compound 0.3 µM, first compound 0.1 µM
[15] = second compound 0.3 µM, first compound 0.316 µM
[16] = second compound 0.3 µM, first compound 1 µM
[17] = second compound 0.3 µM, first compound 3.16 µM
[18] = second compound 0.3 µM, first compound 10 µM
[19] = second compound 0.949 µM, first compound 0.0316 µM
[20] = second compound 0.949 µM, first compound 0.1 µM
[21] = second compound 0.949 µM, first compound 0.316 µM
[22] = second compound 0.949 µM, first compound 1 µM
[23] = second compound 0.949 µM, first compound 3.16 µM
[24] = second compound 0.949 µM, first compound 10 µM
[25] = second compound 3 µM, first compound 0.0316 µM
[26] = second compound 3 µM, first compound 0.1 µM
[27] = second compound 3 µM, first compound 0.316 µM
[28] = second compound 3 µM, first compound 1 µM
[29] = second compound 3 µM, first compound 3.16 µM
[30] = second compound 3 µM, first compound 10 µM
[31] = second compound 0.03 µM, first compound 0.00316 µM
[32] = second compound 0.03 µM, first compound 0.01 µM
[33] = second compound 0.0949 µM, first compound 0.00316 µM
[34] = second compound 0.0949 µM, first compound 0.01 µM
[35] = second compound 0.3 µM, first compound 0.00316 µM
[36] = second compound 0.3 µM, first compound 0.01 µM
[37] = second compound 0.949 µM, first compound 0.00316 µM
[38] = second compound 0.949 µM, first compound 0.01 µM
[39] = second compound 3 µM, first compound 0.00316 µM
[40] = second compound 3 µM, first compound 0.01 µM
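Also: compound exposure lasted seven days after spheroids formed for three days.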

| SMILES | IC50 (second compound 0.03 µM) [µM] | IC50 (second compound 0.0949 µM) [µM] | IC50 (second compound 0.3 µM) [µM] | IC50 (second compound 0.949 µM) [µM] | IC50 (second compound 3 µM) [µM] | viability, T/C [1] [%] | viability, T/C [2] [%] | viability, T/C [3] [%] | viability, T/C [4] [%] | viability, T/C [7] [%] | viability, T/C [8] [%] | viability, T/C [9] [%] | viability, T/C [10] [%] | viability, T/C [13] [%] | viability, T/C [14] [%] | viability, T/C [15] [%] | viability, T/C [16] [%] | viability, T/C [19] [%] | viability, T/C [20] [%] | viability, T/C [21] [%] | further results |
| --- | --- | --- | --- | --- | --- | --- | --- | --- | --- | --- | --- | --- | --- | --- | --- | --- | --- | --- | --- | --- | --- |
| C#Cc1c(F)ccc2cc(O)cc(-c3ncc4c(N5CC6CCC(C5)N6)nc(OCC56CCCN5CC(F)C6)nc4c3F)c12 (stereo not given) + CCN1C(C(=O)NC23CCC(C(=O)O)(CC2)CC3)C(c2cccc(Cl)c2F)C2(C(=O)Nc3cc(Cl)ccc32)C12CCCCC2 | > 10 | > 10 | > 10 | > 10 | > 10 | 94.3 | 105 | 116 | 94.5 | 89.9 | 80.4 | 98.2 | 87.4 | 95.1 | 102 | 102 | 103 | 85.1 | 100 | 107 | viability, T/C [5]: 108%; viability, T/C [6]: 94.6%; viability, T/C [11]: 90.5%; viability, T/C [12]: 71.4%; viability, T/C [17]: 108%; viability, T/C [18]: 75.9%; viability, T/C [22]: 83.8%; viability, T/C [23]: 110%; viability, T/C [24]: 86.2%; viability, T/C [25]: 89.5%; viability, T/C [26]: 91.5%; viability, T/C [27]: 89%; viability, T/C [28]: 107%; viability, T/C [29]: 100%; viability, T/C [30]: 85.6% |
| C=C(F)C(=O)N1CCN(c2nc(OCC3CCCN3C)nc3c2CCN(c2cccc4cccc(Cl)c24)C3)CC1CC#N (stereo not given) + CCN1C(C(=O)NC23CCC(C(=O)O)(CC2)CC3)C(c2cccc(Cl)c2F)C2(C(=O)Nc3cc(Cl)ccc32)C12CCCCC2 | 4.19 | 3.18 | 3.8 | 4.17 | 4.11 | 106 | 103 | 105 | 118 | 99.9 | 101 | 93.2 | 95.2 | 110 | 93 | 80.3 | 111 | 87.1 | 109 | 95.9 | viability, T/C [5]: 66%; viability, T/C [6]: 0.19%; viability, T/C [11]: 50.2%; viability, T/C [12]: 0.16%; viability, T/C [17]: 59.5%; viability, T/C [18]: 0.19%; viability, T/C [22]: 76.7%; viability, T/C [23]: 70%; viability, T/C [24]: 0.2%; viability, T/C [25]: 96.7%; viability, T/C [26]: 102%; viability, T/C [27]: 100%; viability, T/C [28]: 87.2%; viability, T/C [29]: 65.6%; viability, T/C [30]: 0.27% |
| C=CC(=O)N1CCN(c2nc(=O)n(-c3c(C)ccnc3C(C)C)c3nc(-c4c(O)cccc4F)c(F)cc23)C(C)C1 (stereo not given) + CCN1C(C(=O)NC23CCC(C(=O)O)(CC2)CC3)C(c2cccc(Cl)c2F)C2(C(=O)Nc3cc(Cl)ccc32)C12CCCCC2 | > 10 | > 10 | > 10 | > 10 | > 10 | 111 | 97.2 | 119 | 128 | 90.4 | 96.8 | 96.3 | 110 | 97.6 | 119 | 111 | 119 | 85.5 | 114 | 106 | viability, T/C [5]: 128%; viability, T/C [6]: 104%; viability, T/C [11]: 92.8%; viability, T/C [12]: 99.9%; viability, T/C [17]: 114%; viability, T/C [18]: 117%; viability, T/C [22]: 108%; viability, T/C [23]: 130%; viability, T/C [24]: 110%; viability, T/C [25]: 102%; viability, T/C [26]: 96.9%; viability, T/C [27]: 97.9%; viability, T/C [28]: 113%; viability, T/C [29]: 126%; viability, T/C [30]: 104% |
| CNC(C)C(=O)NC1CN(S(=O)(=O)c2cccc(S(=O)(=O)N3CCC4CCC(C(=O)NC(c5ccccc5)c5ccccc5)N4C(=O)C(NC(=O)C(C)NC)C3)c2)CCC2CCC(C(=O)NC(c3ccccc3)c3ccccc3)N2C1=O (stereo not given) + CCN1C(C(=O)NC23CCC(C(=O)O)(CC2)CC3)C(c2cccc(Cl)c2F)C2(C(=O)Nc3cc(Cl)ccc32)C12CCCCC2 | 0.0423 | 0.0381 | 0.0411 | 0.0834 | 0.0367 | 54 | 39.5 | 43.4 | 31.9 | 45.8 | 42 | 31.1 | 26.3 | 51.9 | 43.9 | 36.7 | 38.5 | 60.6 | 49.2 | 36.7 | viability, T/C [31]: 87.4%; viability, T/C [32]: 65.2%; viability, T/C [33]: 66.8%; viability, T/C [34]: 72.6%; viability, T/C [35]: 70.9%; viability, T/C [36]: 63.6%; viability, T/C [37]: 71%; viability, T/C [38]: 62.3%; viability, T/C [22]: 34.4%; viability, T/C [39]: 67.6%; viability, T/C [40]: 61.7%; viability, T/C [25]: 51.2%; viability, T/C [26]: 41.1%; viability, T/C [27]: 28.4%; viability, T/C [28]: 31.4% |
| COc1c(OCCCN2CCOCC2)ccc2c3n(c(=NC(=O)c4cnc(N)nc4)nc12)CCN3 + CCN1C(C(=O)NC23CCC(C(=O)O)(CC2)CC3)C(c2cccc(Cl)c2F)C2(C(=O)Nc3cc(Cl)ccc32)C12CCCCC2 | 0.0458 | 0.039 | 0.0436 | 0.0356 | 0.0462 | 58.5 | 30.8 | 20.5 | 15.4 | 54 | 30.4 | 22 | 15.4 | 49.9 | 38 | 22.3 | 16.7 | 50.6 | 30.7 | 19.2 | viability, T/C [31]: 84%; viability, T/C [32]: 80.5%; viability, T/C [33]: 78.7%; viability, T/C [34]: 73.7%; viability, T/C [35]: 91.2%; viability, T/C [36]: 90.4%; viability, T/C [37]: 93.3%; viability, T/C [38]: 81.6%; viability, T/C [22]: 16.4%; viability, T/C [39]: 112%; viability, T/C [40]: 86.5%; viability, T/C [25]: 59.6%; viability, T/C [26]: 32.1%; viability, T/C [27]: 22.6%; viability, T/C [28]: 15.2% |
